Experimental data as given in the supplement of paper PMC10307832.

What was measured:
Assay in all cases: relative viability (nuclei count vs DMSO), 5 days (fraction); higher = more cells survive
AGI-6780 + Trametinib = compound: O=C(Nc1cccc(C(F)(F)F)c1)Nc1cc(S(=O)(=O)NC2CC2)ccc1-c1ccsc1 [AGI-6780] + CC(=O)Nc1cccc(-n2c(=O)n(C3CC3)c(=O)c3c(Nc4ccc(I)cc4F)n(C)c(=O)c(C)c32)c1 [Trametinib] (partner 0.02 µM)
Method in brief: (§1)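 Lung cancer cell lines were pin-tool dosed in 1536-well plates on the day after seeding, with either a lone drug or a fixed anchor-drug dose plus five library-drug doses (not always all listed) in √10 steps. Nuclei were counted on 4× images after 5 days. Relative viability is the ratio of treated-well to vehicle-well nuclei counts, with each value a median of duplicate plates.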

AGI-6780 + Navitoclax = compound: O=C(Nc1cccc(C(F)(F)F)c1)Nc1cc(S(=O)(=O)NC2CC2)ccc1-c1ccsc1 [AGI-6780] + CC1(C)CCC(c2ccc(Cl)cc2)=C(CN2CCN(c3ccc(C(=O)NS(=O)(=O)c4ccc(N[C@H](CCN5CCOCC5)CSc5ccccc5)c(S(=O)(=O)C(F)(F)F)c4)cc3)CC2)C1 [Navitoclax] (partner 0.5 µM)
Method in brief: as §1

AGI-6780 + Phenformin = compound: O=C(Nc1cccc(C(F)(F)F)c1)Nc1cc(S(=O)(=O)NC2CC2)ccc1-c1ccsc1 [AGI-6780] + N=C(N)NC(=N)NCCc1ccccc1 [Phenformin] (partner 250 µM)
Method in brief: as §1

AGI-6780 + Pemetrexed = compound: O=C(Nc1cccc(C(F)(F)F)c1)Nc1cc(S(=O)(=O)NC2CC2)ccc1-c1ccsc1 [AGI-6780] + Nc1nc2[nH]cc(CCc3ccc(C(=O)N[C@@H](CCC(=O)O)C(=O)O)cc3)c2c(=O)[nH]1 [Pemetrexed] (partner 0.2 µM)
Method in brief: as §1

Cell Line	relative viability (AGI-6780 + Trametinib; first compound 0.08 µM)	relative viability (AGI-6780 + Trametinib; first compound 0.253 µM)	relative viability (AGI-6780 + Trametinib; first compound 0.8 µM)	relative viability (AGI-6780 + Trametinib; first compound 2.53 µM)	relative viability (AGI-6780 + Trametinib; first compound 8 µM)	relative viability (AGI-6780 + Navitoclax; first compound 0.08 µM)	relative viability (AGI-6780 + Navitoclax; first compound 0.253 µM)	relative viability (AGI-6780 + Navitoclax; first compound 0.8 µM)	relative viability (AGI-6780 + Navitoclax; first compound 8 µM)	relative viability (AGI-6780 + Phenformin; first compound 0.08 µM)	relative viability (AGI-6780 + Phenformin; first compound 0.253 µM)	relative viability (AGI-6780 + Phenformin; first compound 0.8 µM)	relative viability (AGI-6780 + Phenformin; first compound 8 µM)	relative viability (AGI-6780 + Pemetrexed; first compound 0.08 µM)	relative viability (AGI-6780 + Pemetrexed; first compound 0.253 µM)	relative viability (AGI-6780 + Pemetrexed; first compound 0.8 µM)	relative viability (AGI-6780 + Pemetrexed; first compound 8 µM)	relative viability (AGI-6780 + Navitoclax; first compound 2.53 µM)	relative viability (AGI-6780 + Phenformin; first compound 2.53 µM)	relative viability (AGI-6780 + Pemetrexed; first compound 2.53 µM)
LK-2	0.864	0.69	0.813	0.541	0.868	0.891	0.844	1.01	1.11	0.598	0.556	0.648	0.495	0.228	0.359	0.28	0.366			
NCI-H1944	0.458	0.417	0.463		0.425	1.07	1.09	1.01	1.02	0.212	0.215	0.213	0.217	0.642	0.627	0.611	0.684	0.792		
HCC-827	0.457	0.518	0.518	0.435	0.476	1.09	1.06	1	0.935	0.423	0.39	0.413	0.376	0.237	0.257	0.264	0.27	1.01	0.395	0.256
NCI-H3122	0.212	0.261	0.239	0.208	0.329	1.03	1.03	1.02	0.977	0.326	0.378	0.421	0.36	0.209	0.199	0.191	0.185	1.07	0.399	0.195
UMC-11	0.657	0.708	0.812		0.902	0.318	0.372	0.348	0.399	0.336	0.344	0.336	0.365	0.793	0.809	0.816	0.868			
EPLC-272H	0.285	0.328	0.291	0.254	0.312	1.17	1.37	1.02	1.08		0.341	0.243	0.274	0.302	0.4	0.27	0.272	0.918	0.28	0.398
NCI-H1651	0.816	0.82	0.833	0.73	0.839	1.04	1.13	1.01	0.906	0.331	0.362	0.394	0.37	0.542	0.643	0.633	0.623	0.912	0.335	0.556
LOU-NH91	0.826	0.777	0.765	0.751	0.824	0.718	0.735	0.698	0.775	0.707	0.659	0.774	0.698	0.402	0.395	0.382	0.429	0.575	0.677	0.389
HARA	1.02	0.638	0.685	0.707	0.628	1.2	1.15	1.09	1.19	0.402	0.483	0.436	0.399	0.248	0.266	0.199	0.239	1.19	0.324	0.271
NCI-H596	0.841	0.712	0.655	0.652	0.777	0.91	1.02	0.927	0.929	0.739	0.876	0.758	0.752	0.456	0.492	0.472	0.479	0.774		0.469
SK-MES-1	0.549	0.577	0.509	0.532	0.493	1.31	1.22	1.09	1.28	0.689	0.647	0.623	0.683	0.991	0.929	0.836	0.929	1.21	0.665	0.985
A-427		0.7	0.797	0.559	0.725	0.942	0.922	1	0.942	0.326	0.294	0.359	0.338		0.932	1.01	0.971	0.81	0.315	0.929
NCI-H441	0.554	0.49	0.553	0.422	0.51	0.702	0.993	0.604	0.663	1.07	0.964	0.822	0.787	0.288	0.241	0.236	0.248	0.487	0.668	0.25
HCC-44	1.08	0.993	1.1	0.994	1.07	0.969	1.02	0.94	1.11	0.182	0.202	0.354	0.257	0.657	0.681	0.601	0.616	0.856	0.175	0.631
NCI-H1993	0.639	0.562	0.535		0.604	1.1	0.986	0.903	1.14	0.419	0.51	0.495	0.54	0.5	0.669	0.634	0.542	0.667	0.499	
NCI-H2023	0.691	0.527	0.497	0.5	0.526	1	1.06	1.02	0.919	0.395	0.39	0.413	0.389	0.283	0.235	0.242	0.204	0.989	0.403	0.256
NCI-H1666	0.936	0.885	0.836	0.776	0.93	0.985	0.894	0.909	0.92	0.51	0.573	0.534	0.618	0.9	1.02	0.847	0.863		0.554	1.02
LCLC-97TM1	0.173	0.21	0.152	0.159	0.197	0.503	0.702	0.642	0.431	0.402	0.409	0.419	0.436	0.173	0.157	0.192	0.192		0.439	0.156
NCI-H1755	0.721	0.775	0.723	0.737	0.802	1.04	1.01	0.977	0.894	0.637	0.683	0.611	0.633	0.496	0.495	0.475	0.402	0.961	0.576	0.435
H3255	0.595	0.592	0.668		0.609	0.395	0.537	0.688	0.516	0.39	0.381	0.384	0.385	0.554	0.549	0.636	0.581	0.292	0.358	0.629
NCI-H2085	0.651	0.581	0.526	0.666	0.735	1.15	1.07	1.1	1.2	0.728	0.836	0.736	0.707	0.935	0.963	0.911	0.906	1.08	0.716	1.14
BEN	0.897	0.999	1.14		0.993	0.0592	0.0703	0.0549	0.0845	0.25	0.281	0.289	0.28	0.644	0.876	0.718	0.965		0.288	
COR-L23	0.601	0.536	0.529	0.379	0.568	1.01	0.961	0.985	1.11	0.457	0.489	0.424	0.506	0.213	0.215	0.206	0.188	1.02	0.408	0.207
HCC-366	0.395	0.375	0.365	0.156	0.301	1.03	1.12	0.984	1.05	0.615	0.667	0.589	0.682	0.177	0.174	0.157	0.168	0.944	0.321	0.259
NCI-H2170	1.03	0.881	0.997		0.863	0.595	0.54	0.674	0.564	0.413	0.459	0.631	0.403	0.285	0.267	0.289	0.272		0.422	
SK-LU-1	0.614	0.537	0.368	0.651	0.497	0.904	0.961	0.418	0.955	0.549	0.555		0.588	0.981	0.93	0.765	1.11	0.851	0.404	0.984
NCI-H2009	0.264	0.272	0.243	0.202	0.225	1.2	1.12	1.19	1.16	0.432	0.426	0.496	0.47	1.14	1.1	1.01	0.957	1.16	0.518	1.14
NCI-H1650	0.559	0.555	0.653	0.623	0.757	1.25	1.08	1.29	1.14	0.387	0.407	0.498	0.382	0.4	0.367	0.366	0.358	1.19	0.4	0.418
